Experimental data as given in patent US20220370406A1, “METHOD OF TREATING STIMULANT USE DISORDER USING A COMBINATION OF TOPIRAMATE AND PHENTERMINE” (University of Kentucky Research Foundation, priority 2019, published 2022).

Experiments:
[1] = system: participants with cocaine use disorder; test: Medical safety session: cardiovascular measures after intranasal cocaine; format: in vivo, human
Experimental: Participants completed one, single-blind medical safety session to ensure they could tolerate intranasal cocaine. Intranasal cocaine doses (i.e., 0 [placebo], 10, 20, 40 and 80 mg) were administered in ascending order. Placebo (i.e., 0 mg) was administered at 0900 hours. The subjective-effect questionnaires and cardiovascular measures described below were completed 30 minutes before placebo administration (i.e., 0830 hours), immediately following and at 15-minute intervals for 45 minutes. Subsequent cocaine administrations were separated by 45 minutes.

[2] = system: participants with cocaine use disorder; test: Experimental sessions: cardiovascular measures after cocaine sampling dose during maintenance; conditions: cocaine 80 mg during topiramate (50 or 100 mg/day)+phentermine (0 mg/day) relative to cocaine 0 mg during 0+0 mg/day
[3] = Cocaine 10 mg, Topiramate (0 mg/day) group
[4] = Cocaine 10 mg, Topiramate (50 mg/day) group
[5] = Cocaine 10 mg, Topiramate (100 mg/day) group
[6] = Cocaine 20 mg, Topiramate (0 mg/day) group
[7] = Cocaine 20 mg, Topiramate (50 mg/day) group
[8] = Cocaine 20 mg, Topiramate (100 mg/day) group
[9] = Cocaine 40 mg, Topiramate (0 mg/day) group
[10] = Cocaine 40 mg, Topiramate (50 mg/day) group
[11] = Cocaine 40 mg, Topiramate (100 mg/day) group
[12] = Cocaine 80 mg, Topiramate (0 mg/day) group
[13] = Cocaine 80 mg, Topiramate (50 mg/day) group
[14] = Cocaine 80 mg, Topiramate (100 mg/day) group

`COC(=O)[C@H]1[C@@H](OC(=O)c2ccccc2)C[C@@H]2CC[C@H]1N2C` [Cocaine, cocaine] was tested, and the “Vitals Diastolic Pressure, mean peak effect” value (“Vitals Diastolic Pressure” for short) [1, 3] was 77.2, the “Vitals Heart Rate, mean peak effect” value [1, 3] was 70.9 and the “Vitals Systolic Pressure, mean peak effect” value (shortened to “Vitals Systolic Pressure”) [1, 3] was 121.1. The “Vitals Diastolic Pressure” value [1, 4] was 84.8, the “Vitals Heart Rate, mean peak effect” value [1, 4] was 67.4 and the “Vitals Systolic Pressure” value [1, 4] was 123.9. The “Vitals Diastolic Pressure” value [1, 5] was 82.6, the “Vitals Heart Rate, mean peak effect” value [1, 5] was 66.7 and the “Vitals Systolic Pressure” value [1, 5] was 125.1. The “Vitals Diastolic Pressure” value [1, 6] was 81.5, the “Vitals Heart Rate, mean peak effect” value [1, 6] was 77.9 and the “Vitals Systolic Pressure” value [1, 6] was 125.3. For the same compound, the “Vitals Diastolic Pressure” value [1, 7] was 84.1, the “Vitals Heart Rate, mean peak effect” value [1, 7] was 66.6 and the “Vitals Systolic Pressure” value [1, 7] was 131.8. The “Vitals Diastolic Pressure” value [1, 8] was 82.3, the “Vitals Heart Rate, mean peak effect” value [1, 8] was 64.6 and the “Vitals Systolic Pressure” value [1, 8] was 128.3. For the same compound, the “Vitals Diastolic Pressure” value [1, 9] was 81.6, the “Vitals Heart Rate, mean peak effect” value [1, 9] was 74.8 and the “Vitals Systolic Pressure” value [1, 9] was 124.9. The “Vitals Diastolic Pressure” value [1, 10] was 82.4, the “Vitals Heart Rate, mean peak effect” value [1, 10] was 70.8 and the “Vitals Systolic Pressure” value [1, 10] was 129.9. The “Vitals Diastolic Pressure” value [1, 11] was 86.5, the “Vitals Heart Rate, mean peak effect” value [1, 11] was 67.8 and the “Vitals Systolic Pressure” value [1, 11] was 131.7. The “Vitals Diastolic Pressure” value [1, 12] was 85.9, the “Vitals Heart Rate, mean peak effect” value [1, 12] was 85.8 and the “Vitals Systolic Pressure” value [1, 12] was 130.5. For the same compound, the “Vitals Diastolic Pressure” value [1, 13] was 84.8, the “Vitals Heart Rate, mean peak effect” value [1, 13] was 78.0 and the “Vitals Systolic Pressure” value [1, 13] was 133.8. For the same compound, the “Vitals Diastolic Pressure” value [1, 14] was 88.3, the “Vitals Heart Rate, mean peak effect” value [1, 14] was 77.6 and the “Vitals Systolic Pressure” value [1, 14] was 137.4. For the same compound, the “heart rate or blood pressure” value ([1]; cocaine 20, 40 or 80 mg above placebo levels in at least one of the topiramate groups, medical safety session) was “significantly increased” and the heart rate [2] was “significantly increased”.
